# From ChEMBL document CHEMBL3045598, “Utilization of nicotinonitrile-2-thiol in the synthesis of new thiepino[2,3-b]pyridine derivative as an in vitro novel antitumor potent” (Med Chem Res, 2013)
# Active and inactive are the calls of the source. The rule behind the calls is not given here.
# System: Ehrlich
# Assay: Cytotoxicity against Mus musculus (mouse) EAC cells assessed as decrease in cell viability at 50 ug/ml by trypan blue exclusion assay
# Format: functional, cell-based
row,Compound,Activity
1,Cc1cc2n(c(=S)c1C#N)CCCC(=O)C2,Active
2,CCOC(=O)C1CCSc2nc(C)cc(C)c2C1=O (stereo not drawn),Active
3,CCOC(=O)CCCSc1nc(C)cc(C)c1C#N,Active
